# Source: ChEMBL document CHEMBL4814003, “Novel dual-mode antitumor chlorin-based derivatives as potent photosensitizers and histone deacetylase inhibitors for photodynamic therapy and chemotherapy” (Eur J Med Chem, 2021)
# Activity calls are given as the source filed them. The calls are words filed in the database; no cut-off is given here.
# How the values were obtained:
# Histone deacetylase 2 = Histone deacetylase 2 (Homo sapiens, UniProt Q92769); test: Inhibition of human recombinant HDAC2 using Ac-Leu-Gly-Lys(Ac)-AMC as substrate by measuring fluorescence intensity incubated for 30 mins by microplate reader assay
# A549 [1] = test: Induction of reactive oxygen species generation in human A549 cells assessed as mean count value at 0.01 uM incubated for 24 hrs by DCFH-DA staining based fluorescence microscopy assay; format: functional
# Histone deacetylase 1 = Histone deacetylase 1 (Homo sapiens, UniProt Q13547); test: Inhibition of human recombinant HDAC1 using Ac-Leu-Gly-Lys(Ac)-AMC as substrate by measuring fluorescence intensity incubated for 30 mins by microplate reader assay
# Histone deacetylase 8 = molecular target: T1, Histone deacetylase 8 (Homo sapiens, UniProt Q9BY41); test: Inhibition of human recombinant HDAC8 using Ac-Leu-Gly-Lys(Ac)-AMC as substrate by measuring fluorescence intensity incubated for 30 mins by microplate reader assay
# T1 sequence (Q9BY41 whole entry): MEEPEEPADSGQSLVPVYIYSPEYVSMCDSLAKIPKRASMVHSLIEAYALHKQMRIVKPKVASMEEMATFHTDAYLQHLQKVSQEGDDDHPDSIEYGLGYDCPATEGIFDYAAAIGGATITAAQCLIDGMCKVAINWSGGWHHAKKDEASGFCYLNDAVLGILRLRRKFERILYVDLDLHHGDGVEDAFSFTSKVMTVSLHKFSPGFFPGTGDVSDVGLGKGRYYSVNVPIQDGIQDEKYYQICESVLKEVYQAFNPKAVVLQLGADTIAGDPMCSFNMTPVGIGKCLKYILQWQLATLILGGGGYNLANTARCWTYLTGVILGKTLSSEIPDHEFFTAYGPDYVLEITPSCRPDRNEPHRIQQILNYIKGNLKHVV
# HCT-116 [2] = test: Phototoxicity in human HCT-116 cells assessed as reduction in cell viability irradiated 10 j/cm2 for 24 hrs followed by incubated for 24 hrs by CCK8 assay; format: functional, cell-based; conditions: HCT-116, light or radiation study
# HCT-116 [3] = test: Dark toxicity in human HCT-116 cells assessed as reduction in cell viability incubated under dark for 48 hrs measured after 48 hrs by CCK8 assay; format: functional, cell-based; conditions: HCT-116, 48 h
# [4] = Drug uptake in human A549 cells assessed as compound localization in nucleus at 0.1 uM measured after 24 hrs by laser confocal microscopy; format: ADME, subcellular; conditions: a549, 24 h
# A549 [5] = test: Induction of apoptosis in human A549 cells assessed as apoptotic cells at 0.01 uM in presence of light irradiation incubated for 48 hrs by annexin V-FITC staining based flow cytometry; format: functional
# A549 [6] = test: Induction of autophagy in human A549 cells irradiated 10 j/cm2 at 0.1 uM after 24 hrs using fluorescent molecule DAPRed; format: functional
# A549 [7] = test: Phototoxicity in human A549 cells assessed as reduction in cell viability irradiated 10 j/cm2 for 24 hrs followed by incubated for 24 hrs by CCK8 assay; format: functional, cell-based; conditions: A549, light or radiation study
# Chain of Histone deacetylase 1 (Q13547 whole entry): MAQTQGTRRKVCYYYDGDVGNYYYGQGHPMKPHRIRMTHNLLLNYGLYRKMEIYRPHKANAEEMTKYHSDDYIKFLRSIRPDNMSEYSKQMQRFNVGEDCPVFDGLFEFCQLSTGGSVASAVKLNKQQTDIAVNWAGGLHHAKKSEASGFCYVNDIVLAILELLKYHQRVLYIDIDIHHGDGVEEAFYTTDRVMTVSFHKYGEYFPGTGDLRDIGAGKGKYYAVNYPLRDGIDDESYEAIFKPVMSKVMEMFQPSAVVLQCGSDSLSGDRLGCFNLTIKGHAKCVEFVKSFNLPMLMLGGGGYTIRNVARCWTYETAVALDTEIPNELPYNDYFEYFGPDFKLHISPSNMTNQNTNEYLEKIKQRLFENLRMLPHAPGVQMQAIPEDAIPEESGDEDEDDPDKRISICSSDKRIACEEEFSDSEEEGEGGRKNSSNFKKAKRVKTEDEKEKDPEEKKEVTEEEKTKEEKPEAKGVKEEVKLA
# Chain of Histone deacetylase 2 (Q92769 whole entry): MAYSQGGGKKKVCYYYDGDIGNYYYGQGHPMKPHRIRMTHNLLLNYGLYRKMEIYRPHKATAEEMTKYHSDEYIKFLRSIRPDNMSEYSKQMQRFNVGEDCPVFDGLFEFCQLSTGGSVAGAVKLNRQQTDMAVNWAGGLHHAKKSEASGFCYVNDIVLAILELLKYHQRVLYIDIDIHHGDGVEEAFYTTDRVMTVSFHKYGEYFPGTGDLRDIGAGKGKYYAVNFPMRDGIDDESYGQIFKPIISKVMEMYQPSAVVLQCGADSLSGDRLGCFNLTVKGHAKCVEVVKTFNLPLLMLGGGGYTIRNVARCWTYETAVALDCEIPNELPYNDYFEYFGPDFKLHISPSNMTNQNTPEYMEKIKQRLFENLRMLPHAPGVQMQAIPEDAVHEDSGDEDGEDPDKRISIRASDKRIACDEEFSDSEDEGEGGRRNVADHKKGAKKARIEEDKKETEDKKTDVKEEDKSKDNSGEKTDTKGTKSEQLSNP
structure (smiles),measurement,setting,value
C=Cc1c(C)c2cc3nc(c(C(=O)OC)c4[nH]c(cc5nc(cc1[nH]2)C(C)=C5CC)c(C)c4C(=O)OC)[C@@H](CCC(=O)Nc1ccc(C(=O)Nc2ccccc2N)cc1)[C@@H]3C,IC50,Histone deacetylase 2,2.65 µM
same,Activity,A549 [1],770.81
same,IC50,Histone deacetylase 1,27 µM
same,IC50,Histone deacetylase 8,> 100 µM
same,IC50,HCT-116 [2],0.006 µM
same,IC50,HCT-116 [3],2.79 µM
same,Drug uptake,[4],Not Active
same,Activity,A549 [5],27.32%
same,Activity,A549 [6],Active
same,IC50,A549 [7],0.06 µM
